Data reported in PubChem BioAssay (NCI).
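Step 1: Grow cells in 96-well plates. Step 2: Expose to compound for 48 hours at 5 concentrations. Step 3: Interpolate endpoints linearly; if unreached, use highest concentration. GI50: concentration for 50% inhibition of growth. Definition used: TGI = concentration required for complete inhibition of growth.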

Columns and labels:
Assay in all cases: NCI tumour cell line growth inhibition, 48 h
HCC-2998 colon = test system: HCC-2998 colon
TK-10 renal = test system: TK-10 renal
UACC-257 melanoma = test system: UACC-257 melanoma
T-47D breast = test system: T-47D breast
A498 renal = test system: A498 renal
UO-31 renal = test system: UO-31 renal
IGROV1 ovarian = test system: IGROV1 ovarian
MALME-3M melanoma = test system: MALME-3M melanoma
PC-3 prostate = test system: PC-3 prostate
HCT-116 colon = test system: HCT-116 colon
A549 NSCLC = test system: A549 NSCLC
U251 CNS = test system: U251 CNS
SK-MEL-5 melanoma = test system: SK-MEL-5 melanoma
MOLT-4 leukemia = test system: MOLT-4 leukemia
RPMI-8226 leukemia = test system: RPMI-8226 leukemia
DU-145 prostate = test system: DU-145 prostate
SK-MEL-2 melanoma = test system: SK-MEL-2 melanoma
OVCAR-5 ovarian = test system: OVCAR-5 ovarian
SF-539 CNS = test system: SF-539 CNS
CCRF-CEM leukemia = test system: CCRF-CEM leukemia
COLO 205 colon = test system: COLO 205 colon
SF-295 CNS = test system: SF-295 CNS
OVCAR-3 ovarian = test system: OVCAR-3 ovarian
SNB-75 CNS = test system: SNB-75 CNS
SR leukemia = test system: SR leukemia
RXF 393 renal = test system: RXF 393 renal
NCI-H522 lung = test system: NCI-H522 lung
786-0 renal = test system: 786-0 renal
HS 578T breast = test system: HS 578T breast
NCI-H226 lung = test system: NCI-H226 lung
OVCAR-4 ovarian = test system: OVCAR-4 ovarian
SW-620 colon = test system: SW-620 colon
ACHN renal = test system: ACHN renal
EKVX NSCLC = test system: EKVX NSCLC
SN12C renal = test system: SN12C renal
NCI/ADR-RES ovarian = test system: NCI/ADR-RES ovarian
KM12 colon = test system: KM12 colon
HL-60(TB) leukemia = test system: HL-60(TB) leukemia
BT-549 breast = test system: BT-549 breast
OVCAR-8 ovarian = test system: OVCAR-8 ovarian
SK-MEL-28 melanoma = test system: SK-MEL-28 melanoma
HCT-15 colon = test system: HCT-15 colon
NCI-H23 lung = test system: NCI-H23 lung
K-562 leukemia = test system: K-562 leukemia
MDA-MB-231 breast = test system: MDA-MB-231 breast
HT29 colon = test system: HT29 colon
NCI-H460 lung = test system: NCI-H460 lung
MCF7 breast = test system: MCF7 breast
LOX IMVI melanoma = test system: LOX IMVI melanoma
CAKI-1 renal = test system: CAKI-1 renal
HOP-62 NSCLC = test system: HOP-62 NSCLC
SK-OV-3 ovarian = test system: SK-OV-3 ovarian
HOP-92 NSCLC = test system: HOP-92 NSCLC
SF-268 CNS = test system: SF-268 CNS
MDA-MB-435 = test system: MDA-MB-435

With `COc1ccc(-c2cn(-c3ccc(Cl)cc3)c(=S)[nH]2)cc1OC` the GI50 (HCC-2998 colon) was 56.2 µM, the TGI (HCC-2998 colon) was over 100 µM and the GI50 (TK-10 renal) was 12.1 µM. For the same compound, the TGI (TK-10 renal) was over 100 µM, the GI50 (UACC-257 melanoma) was over 100 µM and the TGI (UACC-257 melanoma) was over 100 µM. For the same compound, the GI50 (T-47D breast) was 6.09 µM, the TGI (T-47D breast) was over 100 µM and the GI50 (A498 renal) was 3.63 µM. For the same compound, the TGI (A498 renal) was 53.9 µM, the GI50 (UO-31 renal) was 39.6 µM and the TGI (UO-31 renal) was over 100 µM. For the same compound, the GI50 (IGROV1 ovarian) was 7.08 µM, the TGI (IGROV1 ovarian) was over 100 µM and the GI50 (MALME-3M melanoma) was 68.4 µM. The TGI (MALME-3M melanoma) was over 100 µM, the GI50 (PC-3 prostate) was 65.5 µM and the TGI (PC-3 prostate) was over 100 µM. The GI50 (HCT-116 colon) was 3.96 µM, the TGI (HCT-116 colon) was over 100 µM and the GI50 (A549 NSCLC) was 66.4 µM. The TGI (A549 NSCLC) was over 100 µM, the GI50 (U251 CNS) was 12.3 µM and the TGI (U251 CNS) was over 100 µM. For the same compound, the GI50 (SK-MEL-5 melanoma) was 2.92 µM, the TGI (SK-MEL-5 melanoma) was over 100 µM and the GI50 (MOLT-4 leukemia) was over 100 µM. It also gave a TGI (MOLT-4 leukemia) of over 100 µM, a GI50 (RPMI-8226 leukemia) of 4.43 µM and a TGI (RPMI-8226 leukemia) of 92.3 µM. The GI50 (DU-145 prostate) was 14 µM, the TGI (DU-145 prostate) was over 100 µM and the GI50 (SK-MEL-2 melanoma) was over 100 µM. It also gave a TGI (SK-MEL-2 melanoma) of over 100 µM, a GI50 (OVCAR-5 ovarian) of 4.58 µM and a TGI (OVCAR-5 ovarian) of over 100 µM. For the same compound, the GI50 (SF-539 CNS) was 29.9 µM, the TGI (SF-539 CNS) was over 100 µM and the GI50 (CCRF-CEM leukemia) was over 100 µM. For the same compound, the TGI (CCRF-CEM leukemia) was over 100 µM, the GI50 (COLO 205 colon) was 5.61 µM and the TGI (COLO 205 colon) was over 100 µM. It also gave a GI50 (SF-295 CNS) of 6.05 µM, a TGI (SF-295 CNS) of over 100 µM and a GI50 (OVCAR-3 ovarian) of 47.2 µM. For the same compound, the TGI (OVCAR-3 ovarian) was over 100 µM, the GI50 (SNB-75 CNS) was 16.4 µM and the TGI (SNB-75 CNS) was 60.3 µM. For the same compound, the GI50 (SR leukemia) was 2.91 µM, the TGI (SR leukemia) was over 100 µM and the GI50 (RXF 393 renal) was 2.98 µM. The TGI (RXF 393 renal) was over 100 µM, the GI50 (NCI-H522 lung) was 21.5 µM and the TGI (NCI-H522 lung) was over 100 µM. The GI50 (786-0 renal) was 6.44 µM, the TGI (786-0 renal) was 91.7 µM and the GI50 (HS 578T breast) was 19.2 µM. It also gave a TGI (HS 578T breast) of over 100 µM, a GI50 (NCI-H226 lung) of 3.62 µM and a TGI (NCI-H226 lung) of over 100 µM. It also gave a GI50 (OVCAR-4 ovarian) of 20.8 µM, a TGI (OVCAR-4 ovarian) of over 100 µM and a GI50 (SW-620 colon) of over 100 µM. It also gave a TGI (SW-620 colon) of over 100 µM, a GI50 (ACHN renal) of 9.53 µM and a TGI (ACHN renal) of over 100 µM. For the same compound, the GI50 (EKVX NSCLC) was 13.2 µM, the TGI (EKVX NSCLC) was over 100 µM and the GI50 (SN12C renal) was 7.52 µM. The TGI (SN12C renal) was over 100 µM, the GI50 (NCI/ADR-RES ovarian) was 5.3 µM and the TGI (NCI/ADR-RES ovarian) was over 100 µM. It also gave a GI50 (KM12 colon) of 23.8 µM, a TGI (KM12 colon) of over 100 µM and a GI50 (HL-60(TB) leukemia) of 3.34 µM. For the same compound, the TGI (HL-60(TB) leukemia) was 9.32 µM, the GI50 (BT-549 breast) was 7.3 µM and the TGI (BT-549 breast) was over 100 µM. It also gave a GI50 (OVCAR-8 ovarian) of 46.7 µM, a TGI (OVCAR-8 ovarian) of over 100 µM and a GI50 (SK-MEL-28 melanoma) of 22.3 µM. It also gave a TGI (SK-MEL-28 melanoma) of over 100 µM, a GI50 (HCT-15 colon) of 5.22 µM and a TGI (HCT-15 colon) of over 100 µM. The GI50 (NCI-H23 lung) was over 100 µM, the TGI (NCI-H23 lung) was over 100 µM and the GI50 (K-562 leukemia) was over 100 µM. It also gave a TGI (K-562 leukemia) of over 100 µM, a GI50 (MDA-MB-231 breast) of 1.5 µM and a TGI (MDA-MB-231 breast) of 87 µM. The GI50 (HT29 colon) was 3.89 µM, the TGI (HT29 colon) was over 100 µM and the GI50 (NCI-H460 lung) was 3.92 µM. It also gave a TGI (NCI-H460 lung) of over 100 µM, a GI50 (MCF7 breast) of 4.77 µM and a TGI (MCF7 breast) of over 100 µM. For the same compound, the GI50 (LOX IMVI melanoma) was 1.52 µM, the TGI (LOX IMVI melanoma) was 3.11 µM and the GI50 (CAKI-1 renal) was 3.24 µM. The TGI (CAKI-1 renal) was over 100 µM, the GI50 (HOP-62 NSCLC) was 21.5 µM and the TGI (HOP-62 NSCLC) was over 100 µM. The GI50 (SK-OV-3 ovarian) was 48.9 µM, the TGI (SK-OV-3 ovarian) was over 100 µM and the GI50 (HOP-92 NSCLC) was 0.333 µM. For the same compound, the TGI (HOP-92 NSCLC) was 7.63 µM, the GI50 (SF-268 CNS) was 24.6 µM and the TGI (SF-268 CNS) was over 100 µM. The GI50 (MDA-MB-435) was over 100 µM and the TGI (MDA-MB-435) was over 100 µM.
